Reference: article PMC5608556, “Photo-affinity labelling and biochemical analyses identify the target of trypanocidal simplified natural product analogues” (PLoS Neglected Tropical Diseases, 2017)

What was measured:
[1] = tested on: ATP production (oxidative phosphorylation) in digitonin-permeabilised PF T. brucei; test: ATP production assay in digitonin-permeabilised cells; format: cell-based, Trypanosoma brucei; conditions: 30 min; for Inhibition of ATP production from Gly-3P / Effect on ATP production from Gly-3P: glycerol-3-phosphate as substrate; for Inhibition of ATP production from Gly-3P / Effect on ATP production from succinate: compound 1, AA, OA 200 μM, DNP 1 mM; for Effect on ATP production from succinate: succinate 2.5 mM as substrate; for Effect on ATP production from succinate / Effect on ATP production from Gly-3P: malonate 5 mM, rotenone, SHAM 100 μM
Source text: We next sought to identify the point at which ATP production was blocked using digitonin-permeabilised cells. Digitonin permeabilises the plasma membrane of trypanosomatids, but crucially, leaves the glycosomes and mitochondria intact and fully functional, allowing them to be probed with compartment-specific ATP-yielding substrates. Digitonin-permeabilised PF T. brucei were probed with succinate, which is readily transported across the PF T. brucei mitochondrial membrane by the dicarboxylic acid carrier and can yield only oxidative phosphorylation-derived ATP through the FoF1-ATP synthase (complex V).
Fig 5 Inhibition of ATP production in digitonin-permeabilsed cells. (A-C) Digitonin-permeabilised PF T. brucei were probed with substrates in the presence of inhibitors and resulting ATP production quantified by bioluminescence assay. See experimental section for details. Inhibitors were used at saturating concentrations to ensure that relevant enzyme activities were ablated. Key: NS, no substrate; NI, no inhibitor; SHAM, salicylhydroxamic acid (TAO inhibitor at 100 μM); Rotenone (complex I inhibitor at 100 μM); Malonate (complex II inhibitor at 5 mM); AA, antimycin A (complex III inhibitor at 200 μM); OA, oligomycin A (complex V inhibitor at 200 μM); DNP, 2,4-dinitrophenol (protonophore at 1 mM); Comp.1, compound 1 at 200 μM. Background relative light units (RLU) were subtracted from measurements and % ATP production normalised to the no inhibitor control. Data were averaged from three independent experiments, each performed in quadruplicate. Error bars show standard deviations. T-tests were performed against no inhibitor controls (black asterisks) and compound 1 (grey open circles) and significance values presented: p < 0.00005 (*** / °°°), p < 0.0005 (** / °°), p < 0.005 (* / °). (A) Succinate was used as a substrate to generate ATP solely through oxidative phosphorylation (OxPhos). Oxidative phosphorylation inhibitors malonate, AA, OA and DNP virtually eliminated all ATP production. […] (B) α-ketoglutarate yields 40% ATP through substrate-level phosphorylation (SubPhos) and 60% through oxidative phosphorylation. Malonate, AA, OA and DNP inhibit oxidative phosphorylation, but not substrate-level phosphorylation. […] (C) Gly-3P acts as an alternative entry site to the electron transport chain yielding ATP through oxidative phosphorylation and the glycosome (GlyPhos). Malonate has no effect, as it acts at a different entry point. AA, OA and DNP inhibit oxidative phosphorylation, but not glycosomal phosphorylation.
ATP production assays were carried out in duplicate, and three independent assays were conducted. Cells were digitonin-permeabilised as previously described. Briefly, cells were washed in PBS and permeabilised for 5 min at a density of 1x10^8 cells/mL in SoTE buffer (20 mM Tris.HCl (pH 7.5), 2 mM EDTA pH 7.5, 600 mM sorbitol) supplemented with 0.015% (w/v) digitonin. Permeabilised cells were pelleted at 5000 g for 3 min at 4°C and suspended to 8.4x10^7 cells/mL in ATP assay buffer (20 mM Tris.HCl (pH 7.4), 15 mM KH2PO4, 0.6 M sorbitol, 10 mM MgSO4, 2.5 mg/mL fatty acid-free BSA.
ATP production assays were carried out in 75 μl volumes in 96-well plates with a final PF T. brucei cell density of 6.7 x 10^7 cells/mL as previously reported. […] B-THP-Ts, antimycin A (AA) and oligomycin A (OA) were used at 200 μM, Dinitrophenol (DNP) at 1 mM, malonate at 5 mM, rotenone at 100 μM and salicylhydroxamic acid (SHAM) at 100 μM. 59.25 μL digitonin-permeabilised cells (prepared above) were added to 0.75 μl inhibitor dissolved in DMSO (or 0.75 μL DMSO without inhibitor for no inhibitor control) and incubated for 10 min to allow inhibitors to take effect. Substrate was added to 2.5 mM and incubated for 10 min. Reactions were started with the addition of ADP to 60 μM and incubated at RT for 30 min. […]

[2] = tested on: mitochondrial membrane potential (Δψm) in live PF T. brucei; test: MitoTracker monitoring of mitochondrial membrane potential; format: cell-based, Trypanosoma brucei; conditions: 2 h, AA and OA 2 μM, DNP 1 mM
Source text: To determine which mitochondrial complex of oxidative phosphorylation was targeted by B-THP-T compounds, their effects on the mitochondrial membrane potential (Δψm) were monitored in live PF T. brucei (Fig 6A). MitoTracker Red CMXRos, like tetramethylrhodamine and safranine, accumulates in active mitochondria and the degree of accumulation is dependent on the Δψm, however, accumulation of MitoTracker Green FM is independent of the Δψm and the ratio of red/green uptake can therefore be used to determine the Δψm normalised to the number and size of mitochondria present. […] Similarly, compounds 1 and 3 elevated the mitochondrial membrane potential (by 2-3-fold), confirming that they, like OA, reduce oxidative phosphorylation by the inhibition of the FoF1-ATP synthase.
Fig 6 Effects of compounds on mitochondrial membrane potential. PF T. brucei were incubated with inhibitors and MitoTracker Red CMXRos, which is an indicator of the mitochondrial membrane potential (Δψm). (A) MitoTracker-loaded cells were imaged to qualitatively detect differences in the Δψm. […] (B) Fluorescence of MitoTracker-loaded cells were quantified using a microplate reader and normalised to MitoTracker green fluorescence.
2 x 10^6 PF T. brucei cells were incubated in 1 mL GF-SDM-79 growth media supplemented with/without inhibitors for 2 h. B-THP-Ts were used at 40 μM, AA and OA at 2 μM, DNP at 1 mM and SHAM at 100 μM. MitoTracker Red CMXRos and MitoTracker Green FM were added to 100 nM and 1 μM respectively and incubated for a further 10 min. Cells were washed in growth medium and the MitoTracker reagents chased into the mitochondrion for 10 min in fresh growth medium supplemented with inhibitors. Cells were washed again in growth medium to remove unincorporated MitoTracker reagents, pelleted, suspended in 100 μL 4% PFA in PBS, and fixed at RT in the dark for 10 min. Fixed cells were pelleted and suspended in 100 μl PBS. Cells were transferred to poly-lysine-coated slides and mounted with DAPI-containing SlowFade mounting medium (Invitrogen). Fluorescence images were collected with a DeltaVision microscope (as detailed above) to show MitoTracker localisation and comparative intensity.
1 mL of cells at 1 x 10^7 cells/mL were labelled as above. However, instead of fixing cells they were resuspended in 200 μL growth medium and transferred to 96-well plates. Fluorescences were recorded (excitation at 540/35 nm, emission at 590/10 nm for MitoTracker Red CMXRos, and excitation at 485/20 nm, emission at 528/20 nm for MitoTracker Green FM) using a BioTek FLX800 spectrofluorimeter and Gen5 Reader Control 2.0 software, in much the same way as others have recorded previously. Background fluorescence values were subtracted from each and MitoTracker Red fluorescences normalised against their MitoTracker Green FM counterparts. Membrane potentials were then calculated relative to the uninhibited controls.

T. brucei BSF = test: Toxicity (EC50) in bloodstream form T. brucei; format: cell-based, Trypanosoma brucei; conditions: Trypanosoma brucei; bloodstream form; footnote b
Source text: (§1) Fig 1 Labelling and detection of B-THP-T target(s). (A) Structures of chamuvarinin and simplified analogues thereof as probes used in this study and their respective toxicity in selected cell lines. Bi-functional compound 3 contains a diazirine (blue) to cross-link the compound to its target and an alkyne handle (red) to which an azide-containing reporter probe can be added. Mono-functional compound 2 contains the diazirine to cross-link to its target but lacks the alkyne handle and cannot be appended with an azide reporter probe. Lead B-THP-T, compound 1, lacks both diazirine and alkyne. The additional functional groups on compounds 2 and 3 are minor alterations, which have little effect on inhibitor potency. (B) Overview of the in vivo pulse-chase photo-affinity labelling procedure. B-THP-T were incubated with live PF T. brucei cells and trafficked to their targets. Following UV-irradiation, only compounds containing a diazirine (i.e. compounds 2 and 3) could cross-link with target proteins. The subsequent “click reaction” appended the conjugated B-THP-T with a reporter probe as long as an alkyne handle was present (i.e. on compound 3). Refer to the experimental section for details. (C) Detection of Cy5.5-tagged proteins following photo-affinity labelling. Proteins were separated by SDS-PAGE and conjugated Cy5.5 was detected at 700 nm. Lanes 1–3 correspond to usage of compounds 1–3 respectively. Several proteins in lane 3 were conjugated with Cy5.5 via labelling with bi-functional compound 3. […]

T. brucei PF = test: Toxicity (EC50, cell viability) in procyclic form T. brucei; format: cell-based; conditions: Trypanosoma brucei, live cells, 72 h incubation, footnote a
Source text: as §1
The potency of lead B-THP-T, compound 1, was determined against oxidative phosphorylation in dose-response assays in digitonin-permeabilised PF T. brucei.
Supplementary file pntd.0005886.s001.tiff: S1 Fig Dose-response of B-THP-T compounds in PF T. brucei. EC50 values were determined for compounds 1–3 in PF T. brucei. […]

HeLa = test: Toxicity (EC50) in HeLa cells; format: cell-based; conditions: Homo sapiens, footnote b, read-out: EC50 values Mammal HeLa
Source text: Fig 1 Labelling and detection of B-THP-T target(s). (A) Structures of chamuvarinin and simplified analogues thereof as probes used in this study and their respective toxicity in selected cell lines. Bi-functional compound 3 contains a diazirine (blue) to cross-link the compound to its target and an alkyne handle (red) to which an azide-containing reporter probe can be added. Mono-functional compound 2 contains the diazirine to cross-link to its target but lacks the alkyne handle and cannot be appended with an azide reporter probe. Lead B-THP-T, compound 1, lacks both diazirine and alkyne. The additional functional groups on compounds 2 and 3 are minor alterations, which have little effect on inhibitor potency. (B) Overview of the in vivo pulse-chase photo-affinity labelling procedure. B-THP-T were incubated with live PF T. brucei cells and trafficked to their targets. Following UV-irradiation, only compounds containing a diazirine (i.e. compounds 2 and 3) could cross-link with target proteins. The subsequent “click reaction” appended the conjugated B-THP-T with a reporter probe as long as an alkyne handle was present (i.e. on compound 3). Refer to the experimental section for details. (C) Detection of Cy5.5-tagged proteins following photo-affinity labelling. Proteins were separated by SDS-PAGE and conjugated Cy5.5 was detected at 700 nm. […]

Compound | Inhibition of ATP production from Gly-3P [1] | Effect on ATP production from succinate [1] | Effect on mitochondrial membrane potential (Δψm) [2] | EC50 (T. brucei BSF) | EC50 (T. brucei PF) | EC50 (HeLa) | Effect on ATP production from Gly-3P [1]
O=[N+]([O-])c1ccc(O)c([N+](=O)[O-])c1 [2,4-dinitrophenol] | 67 ± 13% | almost abolished ATP production | decrease the mitochondrial membrane potential | – | – | – | –
OCCCC[C@H]1CC2(C[C@@H](Cn3cc([C@@H]4CCC[C@H](CCCCOCc5ccccc5)O4)nn3)O1)N=N2 [Compound 2, 4-((5S,7S)-7-((4-((2S,6S)-6-(4-(benzyloxy)butyl)tetrahydro-2H-pyran-2-yl)-1H-1,2,3-triazol-1-yl)methyl)-6-oxa-1,2-diazaspiro[2.5]oct-1-en-5-yl)butan-1-ol] | – | – | – | 11.8 ± 0.8 µM | 8.9 ± 0.2 µM | 20.9 ± 3 µM | –
C=C(C)[C@H]1Cc2c(ccc3c2O[C@@H]2COc4cc(OC)c(OC)cc4[C@@H]2C3=O)O1 [rotenone] | – | no significant effect | – | – | – | – | no effect
O=C(NO)c1ccccc1O [salicylhydroxamic acid] | – | no significant effect | – | – | – | – | no effect
oligomycin A | 65 ± 21% | almost abolished ATP production | elevates the Δψm | – | – | – | –
